# US9981964B2 (Agency for Science, Technology and Research, priority 2013, dated 2018)
# Tested on: HEK293-STF3A cells
# Test: STF3A assay (STF luciferase reporter in Wnt3A-expressing HEK293 cells)
# Assay type: cell-based
# Conditions: Homo sapiens, 24 h, 1 day of treatment
# Source text: HEK293-STF cell line was modified from Human embryonic kidney cell line HEK293 transfected with the STF reporter. HEK293-STF3A cell line was further modified from HEK293-STF cell line to express Wnt3A. This cell line was used to identify compounds that regulate either early or late signaling components of the Wnt pathway. These two cell lines were obtained from David Virshup's laboratory, Duke-NUS. L-Wnt3A (ATCC, #CRL-2647) cell line was used for providing Wnt3A conditioned media. The three cell lines were grown in DMEM with 10% FBS incubated in 37° C. with 5% CO2.
# 2×10^4 HEK293-STF3A cells in 75 μl culture media were seeded in each well of white 96 well plates (Greiner #655098) and incubated overnight at 37° C. 25 μl serially diluted compound was added to the cells to give final concentration of 50 μM to 1.5 nM. After 1 day of treatment, 100 μl of Steady-Glo Luciferase Assay reagent (#E2520, Promega) was added to each well and incubated for 10 minutes at room temperature. Luminescence was measured using Tecan Safire2 plate reader.
row,SMILES,IC50 [nM]
1,"Cc1cccc(-c2ccc(NC(=O)CN3CCCC4=C3C(=O)N(C)C4=O)cn2)c1 [Compound 131, 2-(6-methyl-5,7-dioxo-2,3,4,5,6,7-hexahydro-1H-pyrrolo[3,4-b]pyridin-1-yl)-N-(6-(m-tolyl)pyridin-3-yl)acetamide]",< 100
2,"CN1C(=O)C2=C(C1=O)N(CC(=O)Nc1ccc(-c3cccc(C(F)(F)F)c3)nn1)CCC2 [Compound 50, 2-(6-methyl-5,7-dioxo-2,3,4,5,6,7-hexahydro-1H-pyrrolo[3,4-b]pyridin-1-yl)-N-(6-(3-(trifluoromethyl)phenyl)pyridazin-3-yl)acetamide]",< 100
3,"CN1C(=O)C2=C(C1=O)N(CC(=O)Nc1ccc(-c3cncc(F)c3)nc1)CCC2 [Compound 100, N-(5′-fluoro-[2,3′-bipyridin]-5-yl)-2-(6-methyl-5,7-dioxo-2,3,4,5,6,7-hexahydro-1H-pyrrolo[3,4-b]pyridin-1-yl)acetamide]",< 100
4,"Cc1cc(NC(=O)CN2CCCC3=C2C(=O)N(C)C3=O)ccc1-c1ccccc1 [Compound 82, 2-(6-methyl-5,7-dioxo-2,3,4,5,6,7-hexahydro-1H-pyrrolo[3,4-b]pyridin-1-yl)-N-(2-methyl-[1,1′-biphenyl]-4-yl)acetamide]",< 100
5,"CN1C(=O)C2=C(C1=O)N(CC(=O)Nc1ncc(-c3ccccc3)cn1)CCC2 [Compound 36, 2-(6-methyl-5,7-dioxo-2,3,4,5,6,7-hexahydro-1H-pyrrolo[3,4-b]pyridin-1-yl)-N-(5-phenylpyrimidin-2-yl)acetamide]",< 100
6,"CC(C(=O)Nc1ccc(-c2cccnc2)nc1)N1CCCC2=C1C(=O)N(C)C2=O (stereo not shown) [Compound 20, N-([2,3′-bipyridin]-5-yl)-2-(6-methyl-5,7-dioxo-2,3,4,5,6,7-hexahydro-1H-pyrrolo[3,4-b]pyridin-1-yl)propanamide]",< 100
7,"CC(C(=O)Nc1ccc(-c2cccnc2F)cn1)N1CCCC2=C1C(=O)N(C)C2=O (stereo not shown) [Compound 97, N-(2′-fluoro-3,3′-bipyridin-6-yl)-2-(6-methyl-5,7-dioxo-2,3,4,5,6,7-hexahydro-1H-pyrrolo[3,4-b]pyridin-1-yl)propanamide]",< 100
8,"Cc1cncc(-c2ccc(NC(=O)CN3CCCC4=C3C(=O)N(C3CC3)C4=O)nn2)c1 [Compound 53, 2-(6-cyclopropyl-5,7-dioxo-2,3,4,5,6,7-hexahydro-1H-pyrrolo[3,4-b]pyridin-1-yl)-N-(6-(5-methylpyridin-3-yl)pyridazin-3-yl)acetamide]",< 100
9,"Cc1cc(-c2cccnc2)ncc1NC(=O)CN1CCCC2=C1C(=O)N(C1CC1)C2=O [Compound 140, 2-(6-cyclopropyl-5,7-dioxo-2,3,4,5,6,7-hexahydro-1H-pyrrolo[3,4-b]pyridin-1-yl)-N-(4-methyl-2,3′-bipyridin-5-yl)acetamide]",< 10000
10,"Cc1ccc(-c2ccc(NC(=O)CN3CCCC4=C3C(=O)N(C3CC3)C4=O)nc2)cn1 [Compound 85, 2-(6-cyclopropyl-5,7-dioxo-2,3,4,5,6,7-hexahydro-1H-pyrrolo[3,4-b]pyridin-1-yl)-N-(6′-methyl-[3,3′-bipyridin]-6-yl)acetamide]",< 100
11,"CN1C(=O)C2=C(C1=O)N(CC(=O)Nc1ccc(-c3cccnc3)nc1)CCC2 [Compound 10, N-([2,3′-bipyridin]-5-yl)-2-(6-methyl-5,7-dioxo-2,3,4,5,6,7-hexahydro-1H-pyrrolo[3,4-b]pyridin-1-yl)acetamide]",< 100
12,"O=C(CN1CCCC2=C1C(=O)N(C1CC1)C2=O)Nc1ccc(-c2ccc(F)nc2)cn1 [Compound 105, 2-(6-cyclopropyl-5,7-dioxo-2,3,4,5,6,7-hexahydro-1H-pyrrolo[3,4-b]pyridin-1-yl)-N-(6′-fluoro-[3,3′-bipyridin]-6-yl)acetamide]",< 100
13,"O=C(CN1CCCC2=C1C(=O)N(C1CC1)C2=O)Nc1ccc(-c2cncc(F)c2)cn1 [Compound 106, 2-(6-cyclopropyl-5,7-dioxo-2,3,4,5,6,7-hexahydro-1H-pyrrolo[3,4-b]pyridin-1-yl)-N-(5′-fluoro-[3,3′-bipyridin]-6-yl)acetamide]",< 100
14,"O=C(CN1CCCC2=C1C(=O)N(C1CC1)C2=O)Nc1ccc(-c2ccc(OC(F)(F)F)cc2)nn1 [Compound 57, 2-(6-cyclopropyl-5,7-dioxo-2,3,4,5,6,7-hexahydro-1H-pyrrolo[3,4-b]pyridin-1-yl)-N-(6-(4-(trifluoromethoxy)phenyl)pyridazin-3-yl)acetamide]",< 1000
15,"CN1C(=O)C2=C(C1=O)N(CC(=O)Nc1ccc(-c3cncc(F)c3)cn1)CCC2 [Compound 143, N-(5′-fluoro-3,3′-bipyridin-6-yl)-2-(6-methyl-5,7-dioxo-2,3,4,5,6,7-hexahydro-1H-pyrrolo[3,4-b]pyridin-1-yl)acetamide]",< 100
16,"Cc1ncccc1-c1ccc(NC(=O)CN2CCCC3=C2C(=O)N(C2CC2)C3=O)nc1 [Compound 110, 2-(6-cyclopropyl-5,7-dioxo-2,3,4,5,6,7-hexahydro-1H-pyrrolo[3,4-b]pyridin-1-yl)-N-(2′-methyl-[3,3′-bipyridin]-6-yl)acetamide]",< 1000

row,SMILES,IC50 [nM]
1,"C[C@@H](C(=O)Nc1ccc(-c2cccnc2)nc1)N1CCCC2=C1C(=O)N(C)C2=O (single isomer, unassigned) [Compound 116]",< 100
2,"CN1C(=O)C2=C(C1=O)N(CC(=O)Nc1ccc(-c3ccc(F)nc3)nc1)CCC2 [Compound 108, N-(6′-fluoro-[2,3′-bipyridin]-5-yl)-2-(6-methyl-5,7-dioxo-2,3,4,5,6,7-hexahydro-1H-pyrrolo[3,4-b]pyridin-1-yl)acetamide]",< 1000
3,"O=C(CN1CCCC2=C1C(=O)N(C1CC1)C2=O)Nc1cnc(-c2cccnc2)cn1 [Compound 26, 2-(6-cyclopropyl-5,7-dioxo-2,3,4,5,6,7-hexahydro-1H-pyrrolo[3,4-b]pyridin-1-yl)-N-(5-(pyridin-3-yl)pyrazin-2-yl)acetamide]",< 100
4,"CN1C(=O)C2=C(C1=O)N(CC(=O)Nc1ccc(-c3ccccc3)c(F)c1)CCC2 [Compound 80, N-(2-fluoro-[1,1′-biphenyl]-4-yl)-2-(6-methyl-5,7-dioxo-2,3,4,5,6,7-hexahydro-1H-pyrrolo[3,4-b]pyridin-1-yl)acetamide]",< 100
5,"Cc1cncc(-c2ccc(NC(=O)CN3CCCC4=C3C(=O)N(C3CC3)C4=O)nc2)n1 [Compound 128, 2-(6-cyclopropyl-5,7-dioxo-2,3,4,5,6,7-hexahydro-1H-pyrrolo[3,4-b]pyridin-1-yl)-N-(5-(6-methylpyrazin-2-yl)pyridin-2-yl)acetamide]",< 100
6,"CN1C(=O)C2=C(C1=O)N(CC(=O)Nc1ccc(-c3ccncc3)cc1)CCC2 [Compound 79, 2-(6-methyl-5,7-dioxo-2,3,4,5,6,7-hexahydro-1H-pyrrolo[3,4-b]pyridin-1-yl)-N-(4-(pyridin-4-yl)phenyl)acetamide]",< 100
7,"CN1C(=O)C2=C(C1=O)N(CC(=O)Nc1ccc(-c3ccncc3)nc1)CCC2 [Compound 122, N-(2,4′-bipyridin-5-yl)-2-(6-methyl-5,7-dioxo-2,3,4,5,6,7-hexahydro-1H-pyrrolo[3,4-b]pyridin-1-yl)acetamide]",< 1000
8,Cc1nc(NC(=O)CN2CCCC3=C2C(=O)N(C)C3=O)ccc1-c1cccnc1 [Compound 112],< 10000
9,"COc1cncc(-c2ccc(NC(=O)CN3CCCC4=C3C(=O)N(C3CC3)C4=O)cn2)c1 [Compound 144, 2-(6-cyclopropyl-5,7-dioxo-2,3,4,5,6,7-hexahydro-1H-pyrrolo[3,4-b]pyridin-1-yl)-N-(5′-methoxy-2,3′-bipyridin-5-yl)acetamide]",< 100
10,"Cc1cncc(-c2ccc(NC(=O)CN3CCCC4=C3C(=O)N(C)C4=O)cn2)c1 [Compound 149, 2-(6-methyl-5,7-dioxo-2,3,4,5,6,7-hexahydro-1H-pyrrolo[3,4-b]pyridin-1-yl)-N-(5′-methyl-[2,3′-bipyridin]-5-yl)acetamide]",< 100
11,"CN1C(=O)C2=C(C1=O)N(CC(=O)Nc1ccc(-c3cncnc3)nc1)CCC2 [Compound 103, 2-(6-methyl-5,7-dioxo-2,3,4,5,6,7-hexahydro-1H-pyrrolo[3,4-b]pyridin-1-yl)-N-(6-(pyrimidin-5-yl)pyridin-3-yl)acetamide]",< 1000
12,"O=C(CN1CCCC2=C1C(=O)N(C1CC1)C2=O)Nc1ccc(-c2cncnc2)cc1 [Compound 90, 2-(6-cyclopropyl-5,7-dioxo-2,3,4,5,6,7-hexahydro-1H-pyrrolo[3,4-b]pyridin-1-yl)-N-(4-(pyrimidin-5-yl)phenyl)acetamide]",< 100
13,"COc1ccc(-c2ccc(NC(=O)CN3CCCC4=C3C(=O)N(C3CC3)C4=O)nc2)nc1 [Compound 130, 2-(6-cyclopropyl-5,7-dioxo-2,3,4,5,6,7-hexahydro-1H-pyrrolo[3,4-b]pyridin-1-yl)-N-(5-methoxy-[2,3′-bipyridin]-6′-yl)acetamide]",< 100
14,"Cc1ccc(-c2ccc(NC(=O)CN3CCCC4=C3C(=O)N(C)C4=O)nn2)cc1 [Compound 30, 2-(6-methyl-5,7-dioxo-2,3,4,5,6,7-hexahydro-1H-pyrrolo[3,4-b]pyridin-1-yl)-N-(6-(p-tolyl)pyridazin-3-yl)acetamide]",< 100
15,"CN1C(=O)C2=C(C1=O)N(CC(=O)Nc1ccc(-c3ccncc3)nn1)CCC2 [Compound 71, 2-(6-methyl-5,7-dioxo-2,3,4,5,6,7-hexahydro-1H-pyrrolo[3,4-b]pyridin-1-yl)-N-(6-(pyridin-4-yl)pyridazin-3-yl)acetamide]",< 1000
